Measurements: patent US4721775A, “Effective peptides related to the luteinizing hormone releasing hormone from L-amino acids” (Board of Regents, The University of Texas System, priority 1985, dated 1988)
Values joined by “and” are separate entries in the source; they are usually repeats but may differ in a detail not shown here. Identical values can stand only once. “Also recorded” adds a separate entry of the source. Non-standard residues stand in square brackets, D forms with d. Residues, ends and D or L forms follow the SMILES beside them. pGlu = O=C1CC[C@@H](C(=O)O)N1

Key:
[1] = biological target: T1, receptor identified with LHRH (Rattus norvegicus, UniProt P30969); experiment: Radio receptor assay (RRA) with 125I-D-Lys6-LHRH as ligand; type: binding; details: relative to LHRH
T1 construct: in tissue there is very likely a different receptor; from tissue
T1 sequence (P30969 1-327): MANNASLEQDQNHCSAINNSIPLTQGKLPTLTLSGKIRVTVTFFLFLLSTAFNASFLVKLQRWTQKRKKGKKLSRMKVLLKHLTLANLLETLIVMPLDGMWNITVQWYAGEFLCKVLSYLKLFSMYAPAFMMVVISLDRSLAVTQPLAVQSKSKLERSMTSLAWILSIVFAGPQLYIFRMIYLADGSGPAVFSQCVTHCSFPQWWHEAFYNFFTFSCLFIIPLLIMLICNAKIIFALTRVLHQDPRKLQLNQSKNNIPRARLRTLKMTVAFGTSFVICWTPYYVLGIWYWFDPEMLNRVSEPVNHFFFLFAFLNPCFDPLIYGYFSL
Text: Data are included in Table II, III, IV and V from radio receptor assays as described by Heber et al. (Am. J. Physiol. […]: E227-E230 (1978)).
For the radio receptor assay, labelled ^125 I-D-Lys^6 -LHRH, was utilized as the ligand. The results are expressed as the relative inhibitory binder of the analog to LHRH at ID50 values.

release of FSH [2] = experiment: Release of FSH in rats after sc injection; type: in vivo
Text: (§1) The data on the release of LH and FSH in rats by modifications of LHRH with one structural change are in Table II.
(§2) Exclusive of the salmon-LHRH, only one of the six decapeptides with two structural changes had significant activity.

release of FSH [3] = experiment: Release of FSH in rats after sc injection; type: in vivo; details: dose and time as stated in the source
release of LH = experiment: Release of LH in rats after sc injection; type: in vivo; details: for LH % change: 60 min. after sc injection, LHRH = 100
Text: as §1, §2

[4] = release 15 min. after sc injection, dosage of peptide 100 ng
[5] = release 15 min. after sc injection, dosage of peptide 1000 ng
[6] = release 60 min. after sc injection, dosage of peptide 300 ng
[7] = release 60 min. after sc injection, dosage of peptide 3000 ng

NC(=O)CC[C@H](NC(=O)[C@H](Cc1c[nH]c2ccccc12)NC(=O)CNC(=O)[C@H](Cc1c[nH]cn1)NC(=O)[C@H](CO)NC(=O)[C@H](Cc1c[nH]c2ccccc12)NC(=O)[C@H](Cc1c[nH]cn1)NC(=O)[C@@H]1CCC(=O)N1)C(=O)N1CCC[C@H]1C(=O)NCC(N)=O [[His^5 Trp^7 Gln^8]--LHRH, p-Glu His Trp Ser His Gly Trp Gln Pro Gly-NH2] ([pGlu]HWSHGWQPG-NH2) was tested, and the “level at which effectiveness in the radioreceptor assay for LHRH is achieved, times that of LHRH” value [1] was 46 times, the FSH % change (release of FSH [2]; 60 min. after sc injection, 300 ng, LHRH = 100) was 68% and 67.8% and the FSH (release of FSH [2]; [4]) was 403 ng/mL. The FSH (release of FSH [2]; [5]) was 486 ng/mL, the FSH (release of FSH [2]; [6]) was 404 ng/mL and the FSH (release of FSH [2]; [7]) was 1161 ng/mL. The “release of FSH compared with LHRH” value (release of FSH [3]) was “as much FSH at the higher dosage of 3000 ng as LHRH; also recorded: released equivalent levels of LH and FSH when monitored 15 minutes after injection; also recorded: released as much FSH as LHRH”, the LH % change (release of LH; 300 ng) was 46% and the LH % change (release of LH; 3000 ng) was 65%. The LH (release of LH; [4]) was 17 ng/mL, the LH (release of LH; [5]) was 66 ng/mL and the LH (release of LH; [6]) was 5 ng/mL. The LH (release of LH; [7]) was 53 ng/mL and the “release of LH compared with LHRH” value (release of LH; sc injection, dose and time as stated in the source) was “released less LH; also recorded: released equivalent levels of LH and FSH when monitored 15 minutes after injection; also recorded: as effective at 100 ng as LHRH; also recorded: about two times as effective as [His^5, Trp^7 Leu^8 ]-LHRH”.
